Values of other authors, collected in patent US20230051463A1, “Methotrexate Dosage Form” (ROS Therapeutics ApS, priority 2020, published 2023).
Like-named read-outs stand apart in the source and are kept apart here.

Experiments:
[1] = oral

CN(Cc1cnc2nc(N)nc(N)c2n1)c1ccc(C(=O)N[C@@H](CCC(=O)[O-])C(=O)[O-])cc1.[Na+].[Na+] [Methotrexate disodium]
solubility in water: freely soluble

CN(Cc1cnc2nc(N)nc(N)c2n1)c1ccc(C(=O)N[C@@H](CCC(=O)O)C(=O)O)cc1 [Methotrexate]
solubility in water: practically insoluble

CN(Cc1cnc2nc(N)nc(N)c2n1)c1ccc(C(=O)N[C@@H](CCC(=O)O)C(=O)O)cc1 [Oral MTX]
AUC(0-24) Geometric LS Mean ([1]; Methotrexate 10 mg): 1.2237 µg·h/mL | Cmax Geometric LS Mean ([1]; Methotrexate 10 mg): 0.2472 µg/mL | AUC(0-24) Geometric LS Mean ([1]; Methotrexate 15 mg): 1.752 µg·h/mL | Cmax Geometric LS Mean ([1]; Methotrexate 15 mg): 0.3494 µg/mL | AUC(0-24) Geometric LS Mean ([1]; Methotrexate 20 mg): 1.9272 µg·h/mL | Cmax Geometric LS Mean ([1]; Methotrexate 20 mg): 0.4404 µg/mL | AUC(0-24) Geometric LS Mean ([1]; Methotrexate 25 mg): 1.9878 µg·h/mL | Cmax Geometric LS Mean ([1]; Methotrexate 25 mg): 0.4235 µg/mL
